From ChEMBL document CHEMBL5465560, “Selectivity Literature for EUbOPEN Chemogenomic Library” (2024)

Key:
[1] = molecular target: T1, Cyclin-G-associated kinase (Homo sapiens) (UniProt O14976); details: at 10 µM
T1 sequence (whole entry): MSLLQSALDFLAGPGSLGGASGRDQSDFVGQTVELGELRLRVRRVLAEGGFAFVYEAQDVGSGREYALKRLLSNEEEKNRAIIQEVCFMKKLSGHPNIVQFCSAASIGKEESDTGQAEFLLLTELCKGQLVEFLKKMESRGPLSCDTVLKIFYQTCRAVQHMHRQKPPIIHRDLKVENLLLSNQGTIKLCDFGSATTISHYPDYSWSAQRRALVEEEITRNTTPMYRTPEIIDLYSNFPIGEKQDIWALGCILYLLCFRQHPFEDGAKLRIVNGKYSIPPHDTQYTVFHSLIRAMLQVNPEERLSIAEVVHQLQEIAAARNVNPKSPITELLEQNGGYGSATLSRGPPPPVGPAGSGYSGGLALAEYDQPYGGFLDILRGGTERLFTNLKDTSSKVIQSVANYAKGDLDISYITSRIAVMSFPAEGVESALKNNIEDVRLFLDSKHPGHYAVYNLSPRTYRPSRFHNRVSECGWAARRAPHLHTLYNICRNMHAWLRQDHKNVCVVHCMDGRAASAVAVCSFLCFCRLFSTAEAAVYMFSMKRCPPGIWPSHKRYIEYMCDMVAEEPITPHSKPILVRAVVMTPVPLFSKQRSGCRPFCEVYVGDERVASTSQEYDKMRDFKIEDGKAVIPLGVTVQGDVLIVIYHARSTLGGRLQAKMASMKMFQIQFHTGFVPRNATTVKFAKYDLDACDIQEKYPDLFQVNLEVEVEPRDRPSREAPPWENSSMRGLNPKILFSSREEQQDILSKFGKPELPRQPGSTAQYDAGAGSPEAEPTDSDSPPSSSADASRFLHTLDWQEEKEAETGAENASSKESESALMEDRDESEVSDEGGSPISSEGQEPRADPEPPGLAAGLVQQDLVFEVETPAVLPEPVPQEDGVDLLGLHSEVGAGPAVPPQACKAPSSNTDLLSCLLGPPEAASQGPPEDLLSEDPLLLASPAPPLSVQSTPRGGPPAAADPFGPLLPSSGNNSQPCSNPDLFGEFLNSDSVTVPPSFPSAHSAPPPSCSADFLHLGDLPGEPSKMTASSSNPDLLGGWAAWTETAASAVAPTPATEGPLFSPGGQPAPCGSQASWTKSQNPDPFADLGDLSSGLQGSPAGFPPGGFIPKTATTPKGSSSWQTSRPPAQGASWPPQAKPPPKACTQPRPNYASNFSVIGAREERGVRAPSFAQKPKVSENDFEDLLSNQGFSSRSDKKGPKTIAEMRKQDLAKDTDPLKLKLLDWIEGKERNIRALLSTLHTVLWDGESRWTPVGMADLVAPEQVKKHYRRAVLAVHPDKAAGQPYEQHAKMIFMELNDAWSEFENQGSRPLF

[2] = molecular target: T2, cGMP-dependent protein kinase 1 (Homo sapiens) (UniProt Q13976); test: Selectivity interaction (KinomeScan (DiscoverX)) EUB0000092b PRKG1; details: at 10 µM
T2 sequence (whole entry): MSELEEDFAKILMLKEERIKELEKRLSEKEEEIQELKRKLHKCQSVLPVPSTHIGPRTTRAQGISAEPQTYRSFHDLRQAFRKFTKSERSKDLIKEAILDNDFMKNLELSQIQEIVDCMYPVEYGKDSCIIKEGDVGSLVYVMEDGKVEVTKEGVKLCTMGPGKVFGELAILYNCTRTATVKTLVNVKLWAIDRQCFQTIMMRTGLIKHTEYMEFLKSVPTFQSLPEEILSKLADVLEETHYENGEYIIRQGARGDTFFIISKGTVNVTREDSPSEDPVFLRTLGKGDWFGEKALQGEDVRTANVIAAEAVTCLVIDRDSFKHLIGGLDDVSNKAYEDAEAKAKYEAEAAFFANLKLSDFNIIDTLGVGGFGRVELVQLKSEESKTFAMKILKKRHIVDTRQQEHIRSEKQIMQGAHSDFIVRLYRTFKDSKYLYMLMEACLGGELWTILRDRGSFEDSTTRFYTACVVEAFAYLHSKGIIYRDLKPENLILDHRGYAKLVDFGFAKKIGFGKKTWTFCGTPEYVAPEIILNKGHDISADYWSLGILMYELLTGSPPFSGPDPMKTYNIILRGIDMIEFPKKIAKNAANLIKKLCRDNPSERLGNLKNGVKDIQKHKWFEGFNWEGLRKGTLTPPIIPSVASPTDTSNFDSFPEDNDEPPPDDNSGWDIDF

[3] = molecular target: Vascular endothelial growth factor receptor 1 (Homo sapiens) (UniProt P17948); test: Selectivity interaction (KinomeScan (DiscoverX)) EUB0000655a FLT1; details: at 10 µM
[4] = molecular target: Dual specificity protein kinase CLK1 (Homo sapiens, UniProt P49759); test: Selectivity interaction (KinomeScan (DiscoverX)) EUB0000655a CLK1; details: at 10 µM
[5] = molecular target: Insulin-like growth factor 1 receptor (Homo sapiens, UniProt P08069); test: Selectivity interaction (Millipore kinase profiler) EUB0000124b IGF1R; details: at 10 µM
[6] = molecular target: Receptor-type tyrosine-protein kinase FLT3 (Homo sapiens) (UniProt P36888); test: Selectivity interaction (Kinase panel (Invitrogen)) EUB0000639a FLT3; details: at 200 nM
[7] = molecular target: Ribosomal protein S6 kinase alpha-4 (Homo sapiens) (UniProt O75676); test: Selectivity interaction (SelectScreen profiling (Invitrogen)) EUB0000607a RPS6KA4; details: at 2 µM
[8] = molecular target: T3, Mitogen-activated protein kinase kinase kinase 3 (Homo sapiens) (UniProt Q99759); test: Selectivity interaction (KinomeScan (DiscoverX)) EUB0000695a MAP3K3; details: at 100 nM
T3 sequence (whole entry): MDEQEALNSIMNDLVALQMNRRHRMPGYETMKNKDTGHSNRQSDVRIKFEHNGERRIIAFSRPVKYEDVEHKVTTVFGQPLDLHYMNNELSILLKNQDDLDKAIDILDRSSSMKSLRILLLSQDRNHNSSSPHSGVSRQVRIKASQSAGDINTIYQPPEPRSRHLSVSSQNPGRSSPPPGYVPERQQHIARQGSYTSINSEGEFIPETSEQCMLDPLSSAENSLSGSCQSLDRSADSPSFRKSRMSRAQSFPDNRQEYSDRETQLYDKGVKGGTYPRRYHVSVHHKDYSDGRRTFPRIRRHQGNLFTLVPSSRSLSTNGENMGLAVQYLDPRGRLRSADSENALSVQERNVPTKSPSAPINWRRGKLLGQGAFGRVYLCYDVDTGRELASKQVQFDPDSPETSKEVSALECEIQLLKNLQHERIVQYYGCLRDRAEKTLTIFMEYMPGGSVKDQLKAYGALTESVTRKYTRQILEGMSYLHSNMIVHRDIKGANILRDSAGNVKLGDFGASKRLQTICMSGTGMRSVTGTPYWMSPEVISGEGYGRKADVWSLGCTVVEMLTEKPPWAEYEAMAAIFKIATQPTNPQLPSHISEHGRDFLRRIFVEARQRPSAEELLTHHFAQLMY

Receptor-type tyrosine-protein kinase FLT3 (Homo sapiens), sequence (P36888 whole entry): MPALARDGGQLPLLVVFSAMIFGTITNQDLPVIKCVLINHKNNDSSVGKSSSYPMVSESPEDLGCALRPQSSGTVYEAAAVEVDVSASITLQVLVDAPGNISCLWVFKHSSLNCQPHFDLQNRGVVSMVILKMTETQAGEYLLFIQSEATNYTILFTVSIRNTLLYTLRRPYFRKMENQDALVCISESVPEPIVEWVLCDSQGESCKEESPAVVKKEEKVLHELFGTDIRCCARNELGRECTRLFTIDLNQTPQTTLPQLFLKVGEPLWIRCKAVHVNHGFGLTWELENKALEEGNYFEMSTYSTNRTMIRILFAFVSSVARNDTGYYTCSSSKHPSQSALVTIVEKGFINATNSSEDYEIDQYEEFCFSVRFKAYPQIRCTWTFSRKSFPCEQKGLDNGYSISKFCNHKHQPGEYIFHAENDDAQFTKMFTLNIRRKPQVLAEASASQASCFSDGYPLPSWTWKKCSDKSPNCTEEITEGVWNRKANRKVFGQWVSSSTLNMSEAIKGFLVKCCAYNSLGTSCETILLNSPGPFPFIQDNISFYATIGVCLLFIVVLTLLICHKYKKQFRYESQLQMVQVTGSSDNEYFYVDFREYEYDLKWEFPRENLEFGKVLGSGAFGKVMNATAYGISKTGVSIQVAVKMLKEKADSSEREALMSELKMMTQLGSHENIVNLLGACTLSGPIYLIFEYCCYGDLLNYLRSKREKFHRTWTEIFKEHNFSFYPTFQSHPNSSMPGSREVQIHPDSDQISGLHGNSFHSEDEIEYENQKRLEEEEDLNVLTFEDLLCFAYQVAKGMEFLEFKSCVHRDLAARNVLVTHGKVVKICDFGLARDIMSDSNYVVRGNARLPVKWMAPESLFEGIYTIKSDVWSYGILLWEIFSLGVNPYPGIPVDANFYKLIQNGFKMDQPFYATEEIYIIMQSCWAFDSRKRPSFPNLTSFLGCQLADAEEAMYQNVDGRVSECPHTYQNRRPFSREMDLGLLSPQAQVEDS
Ribosomal protein S6 kinase alpha-4 (Homo sapiens), sequence (O75676 whole entry, looked up): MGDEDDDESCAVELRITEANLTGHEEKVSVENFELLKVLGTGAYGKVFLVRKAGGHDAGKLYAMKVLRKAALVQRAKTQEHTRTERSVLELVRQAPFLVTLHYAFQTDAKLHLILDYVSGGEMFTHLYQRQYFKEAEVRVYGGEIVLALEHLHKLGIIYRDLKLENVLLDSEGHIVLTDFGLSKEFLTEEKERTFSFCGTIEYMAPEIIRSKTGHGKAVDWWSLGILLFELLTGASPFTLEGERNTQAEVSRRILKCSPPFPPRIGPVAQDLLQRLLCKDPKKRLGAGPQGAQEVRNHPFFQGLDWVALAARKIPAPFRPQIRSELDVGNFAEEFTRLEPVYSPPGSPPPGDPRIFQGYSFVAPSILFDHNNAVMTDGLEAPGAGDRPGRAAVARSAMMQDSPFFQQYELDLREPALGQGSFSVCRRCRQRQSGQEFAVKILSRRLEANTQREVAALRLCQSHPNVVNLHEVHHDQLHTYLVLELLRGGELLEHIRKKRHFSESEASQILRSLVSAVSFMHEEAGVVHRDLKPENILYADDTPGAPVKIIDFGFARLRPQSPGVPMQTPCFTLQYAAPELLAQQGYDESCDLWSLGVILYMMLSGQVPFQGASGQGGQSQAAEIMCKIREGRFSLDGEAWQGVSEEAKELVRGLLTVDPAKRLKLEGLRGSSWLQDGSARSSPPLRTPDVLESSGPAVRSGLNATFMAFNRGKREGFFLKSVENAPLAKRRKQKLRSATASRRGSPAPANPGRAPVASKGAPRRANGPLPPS
Vascular endothelial growth factor receptor 1 (Homo sapiens), sequence (P17948 whole entry): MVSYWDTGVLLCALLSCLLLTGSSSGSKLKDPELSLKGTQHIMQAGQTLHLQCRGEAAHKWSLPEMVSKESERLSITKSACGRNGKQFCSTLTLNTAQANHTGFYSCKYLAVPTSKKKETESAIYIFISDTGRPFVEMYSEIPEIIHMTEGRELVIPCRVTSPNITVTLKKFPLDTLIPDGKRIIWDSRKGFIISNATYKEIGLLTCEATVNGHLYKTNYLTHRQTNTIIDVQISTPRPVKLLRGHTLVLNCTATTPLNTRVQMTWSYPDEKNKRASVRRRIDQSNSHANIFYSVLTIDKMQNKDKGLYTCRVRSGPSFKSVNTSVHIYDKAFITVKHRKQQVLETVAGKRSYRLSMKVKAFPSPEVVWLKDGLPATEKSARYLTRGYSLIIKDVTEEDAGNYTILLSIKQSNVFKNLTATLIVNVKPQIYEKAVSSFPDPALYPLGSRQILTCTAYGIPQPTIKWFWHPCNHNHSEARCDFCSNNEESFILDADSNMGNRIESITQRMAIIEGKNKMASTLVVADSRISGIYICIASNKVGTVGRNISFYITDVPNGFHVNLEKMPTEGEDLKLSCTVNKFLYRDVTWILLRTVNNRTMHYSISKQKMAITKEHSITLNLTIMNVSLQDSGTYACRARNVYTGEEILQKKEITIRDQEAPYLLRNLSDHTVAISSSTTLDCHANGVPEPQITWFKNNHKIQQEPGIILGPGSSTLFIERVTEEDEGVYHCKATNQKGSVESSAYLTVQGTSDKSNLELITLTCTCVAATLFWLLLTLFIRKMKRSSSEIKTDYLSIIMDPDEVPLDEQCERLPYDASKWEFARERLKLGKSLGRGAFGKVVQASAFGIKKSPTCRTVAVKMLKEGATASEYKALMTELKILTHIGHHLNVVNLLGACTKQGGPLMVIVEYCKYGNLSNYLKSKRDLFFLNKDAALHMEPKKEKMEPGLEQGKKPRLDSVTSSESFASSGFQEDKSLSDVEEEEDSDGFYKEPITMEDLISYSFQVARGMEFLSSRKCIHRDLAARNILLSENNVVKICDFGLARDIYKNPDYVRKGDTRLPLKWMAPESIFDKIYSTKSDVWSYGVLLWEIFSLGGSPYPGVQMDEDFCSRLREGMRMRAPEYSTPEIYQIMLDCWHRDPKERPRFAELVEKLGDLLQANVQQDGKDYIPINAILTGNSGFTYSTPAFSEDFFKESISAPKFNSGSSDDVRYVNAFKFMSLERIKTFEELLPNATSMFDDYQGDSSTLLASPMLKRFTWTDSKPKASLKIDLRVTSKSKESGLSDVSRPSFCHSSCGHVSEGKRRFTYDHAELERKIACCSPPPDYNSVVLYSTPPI
Dual specificity protein kinase CLK1, sequence (P49759 whole entry, looked up): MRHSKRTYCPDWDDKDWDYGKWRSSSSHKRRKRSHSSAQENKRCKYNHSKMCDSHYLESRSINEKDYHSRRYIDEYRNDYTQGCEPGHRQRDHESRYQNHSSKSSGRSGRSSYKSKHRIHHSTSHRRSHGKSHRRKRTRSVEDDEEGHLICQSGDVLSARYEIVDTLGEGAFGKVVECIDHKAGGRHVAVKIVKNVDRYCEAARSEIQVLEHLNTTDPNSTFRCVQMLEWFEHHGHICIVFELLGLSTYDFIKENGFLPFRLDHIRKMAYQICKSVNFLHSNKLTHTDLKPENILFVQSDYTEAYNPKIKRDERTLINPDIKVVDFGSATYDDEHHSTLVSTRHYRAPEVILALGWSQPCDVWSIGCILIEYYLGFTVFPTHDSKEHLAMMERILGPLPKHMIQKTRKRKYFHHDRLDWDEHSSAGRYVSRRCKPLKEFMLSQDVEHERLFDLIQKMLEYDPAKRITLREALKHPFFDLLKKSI
Insulin-like growth factor 1 receptor, sequence (P08069 31-736 limits assumed): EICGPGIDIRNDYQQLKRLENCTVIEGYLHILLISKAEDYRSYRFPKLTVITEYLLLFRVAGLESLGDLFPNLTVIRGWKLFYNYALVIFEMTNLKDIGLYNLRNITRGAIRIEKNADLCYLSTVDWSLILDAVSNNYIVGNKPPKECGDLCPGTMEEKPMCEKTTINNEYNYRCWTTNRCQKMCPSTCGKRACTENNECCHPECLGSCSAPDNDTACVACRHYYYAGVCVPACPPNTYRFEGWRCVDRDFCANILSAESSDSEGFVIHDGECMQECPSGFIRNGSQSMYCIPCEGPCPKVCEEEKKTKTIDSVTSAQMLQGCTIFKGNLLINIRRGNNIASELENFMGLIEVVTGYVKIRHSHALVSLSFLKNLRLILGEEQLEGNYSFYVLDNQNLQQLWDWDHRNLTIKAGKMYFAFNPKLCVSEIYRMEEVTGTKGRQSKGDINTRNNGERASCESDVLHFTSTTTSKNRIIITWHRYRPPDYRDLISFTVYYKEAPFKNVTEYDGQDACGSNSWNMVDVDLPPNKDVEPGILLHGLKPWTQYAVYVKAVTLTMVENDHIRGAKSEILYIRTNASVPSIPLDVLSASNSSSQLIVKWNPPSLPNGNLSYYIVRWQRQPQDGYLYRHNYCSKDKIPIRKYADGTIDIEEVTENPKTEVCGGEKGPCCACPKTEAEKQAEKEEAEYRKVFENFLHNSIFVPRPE
Insulin-like growth factor 1 receptor, sequence (P08069 741-1367 limits assumed): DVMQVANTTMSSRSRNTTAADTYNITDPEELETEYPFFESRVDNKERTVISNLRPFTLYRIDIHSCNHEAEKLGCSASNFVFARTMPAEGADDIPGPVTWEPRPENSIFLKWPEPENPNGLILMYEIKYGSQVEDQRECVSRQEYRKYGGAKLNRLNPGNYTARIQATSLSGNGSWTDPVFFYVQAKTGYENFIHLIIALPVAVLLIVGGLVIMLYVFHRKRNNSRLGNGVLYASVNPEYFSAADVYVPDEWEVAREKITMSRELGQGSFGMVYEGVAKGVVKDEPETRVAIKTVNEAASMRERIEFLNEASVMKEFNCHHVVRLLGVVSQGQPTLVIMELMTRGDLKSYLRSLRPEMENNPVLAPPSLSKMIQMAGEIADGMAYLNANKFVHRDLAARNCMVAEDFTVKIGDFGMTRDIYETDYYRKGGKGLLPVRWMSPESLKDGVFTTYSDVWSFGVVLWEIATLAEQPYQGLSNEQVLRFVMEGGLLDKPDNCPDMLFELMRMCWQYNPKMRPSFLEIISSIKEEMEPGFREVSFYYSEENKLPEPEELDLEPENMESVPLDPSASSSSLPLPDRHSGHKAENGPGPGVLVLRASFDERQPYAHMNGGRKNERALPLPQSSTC

Structure (SMILES): CCN(CC)CCCCNc1ncc2cc(-c3cc(OC)cc(OC)c3)c(NC(=O)NC(C)(C)C)nc2n1
- % of control [1]: 100%

Structure (SMILES): CCC(=O)N1CCN(c2ccc(-n3c(=O)ccc4cnc5ccc(-c6cnc7ccccc7c6)cc5c43)cc2C(F)(F)F)CC1
- % of control [2]: 86%

Structure (SMILES): CN(C)CCOc1ccc(-c2nc(-c3ccncc3)c(-c3ccc4c(c3)CC/C4=N\O)[nH]2)cc1
- % of control [3]: 79%
- % of control [4]: 77%

Structure (SMILES): CC(=O)Nc1cccc(-n2c(=O)n(C3CC3)c(=O)c3c(Nc4ccc(I)cc4F)n(C)c(=O)c(C)c32)c1
- % of control [5]: 95%

Structure (SMILES): CC[C@@H]1[C@H](F)C(=O)N[C@@H]1COc1nccc2cc(C(N)=O)c(OC)cc12 [ZIMLOVISERTIB]
- % of inhibition [6]: 9.68%

Structure (SMILES): CNC(=O)Nc1ccc(-c2nc(N3CC4CCC(C3)O4)c3cnn(C4CCC5(CC4)OCCO5)c3n2)cc1
- % of inhibition [7]: 1%

Structure (SMILES): Cc1cc(F)c(C(=O)Nc2cccc(-c3nncn3C(C)C)n2)cc1-n1cnc(C2CC2)c1
- % of control [8]: 93%
